Reference: patent US20260273020A1, “OBESTATIN FOR USE AS ANTINEOPLASTIC AGENT IN THE TREATMENT OF PANCREATIC CANCER” (SERVIZO GALEGO DE SAÚDE, priority 2023, published 2026)

Assay: Pancreatic cancer associated cachexia: skeletal muscle weight, food intake
Type: in vivo, C57BL/6J mice
Settings: tumour-bearing mice
Protocol: FIG. 9. Analysis of obestatin action on skeletal muscle cachexia of C57BL/6J mice (n=4) orthotopically injected with KPC FC1242 cells and treated with vehicle [NaCl, 0.9% (w/v)] or obestatin (500 nmol/Kg/72 h). Tibialis anterior (TA), gastrocnemius (GA), soleus (SOL), extensor digitorum longus (EDL) and diaphragm (DIA) muscles were collected and weighted at day 12 after tumour injection. Results are expressed as the percentage of the weight recovery of the muscle of obestatin-treated mice related to vehicle treated mice (mean±SE).
In vivo experiments were carried out in C57BL/6 mice, obtained from the Central Animal Facility of the University of Santiago de Compostela. Male C57BL/6 mice, weighing 25 g on arrival, were housed four per cage at a constant temperature of 22±2° C. and at a 12 h light/dark cycle. The mice were kept for 5 days for acclimation, with free access to water, and a standard mice chow with a composition of 5.5% fat, 23% protein and 70% carbohydrate (SAFE-Panlab, Spain).
The mice were assigned to the different groups (n=4/group) and treated for five days with: 1) healthy control, 2) tumour+vehicle [NaCl, 0.9% (w/v)], and 3) tumour+obestatin (500 nmol/Kg/72 h). Mice without tumoral cells treatment were utilized as healthy controls.
Mice were weighed at set times over the 15-day period. The sterilized surgical material was used for the tissue extraction. Pancreases and muscles were carefully removed from each animal minimizing contamination with surrounding tissue or mouse hair. Pancreases and muscles were weighed. The skeletal muscles selected were: tibialis anterior, TA; extensor digitorum longus, EDL; gastrocnemius, GAST; soleus, SOL; and diaphragm, DIA. Pancreases were also measured with a scale (cm) and pictures were taken. • Histology—Pancreas samples for histology were fixed in 4% paraformaldehyde in PBS at room temperature overnight. After fixation, samples were dehydrated and embedded in paraffin blocks. For this study, 3-micron sections were cut from each block and placed on pre-cleaned slides (Thermo Fisher Scientific, Waltham, MA, USA). The sectioned tissue slides were covered with a thin layer of paraffin, stoked at 60° C. for 1 hour and stored protected from light at room temperature to preserve the antigenicity of sections. • Immunoblot—For immunoblot analysis, pancreases were immediately frozen in dry ice and stored at −80° C. until use. Tissues were homogenized using a TissueLyser II tissue homogenizer (Qiagen, Hilden, DE), in 200 μL of RIPA lysis buffer at 30 Hz for 3 min. The lysates were clarified by centrifugation (18,000×g, 15 min, 4° C.), and the protein concentration was quantified by the Quantipro™ BCA assay kit (Sigma-Aldrich, St. Louis, MO, US).

obestatin
effect on skeletal muscle weight loss, diaphragm (DIA) (obestatin 500 nmol/Kg/72 h): No effect
reduction of skeletal muscle weight loss (weight recovery vs vehicle treated mice), extensor digitorum longus (EDL) (obestatin 500 nmol/Kg/72 h): 62.2±8.1%
reduction of skeletal muscle weight loss (weight recovery vs vehicle treated mice), gastrocnemius (GAS) (obestatin 500 nmol/Kg/72 h): 10.6±3.2%
reduction of skeletal muscle weight loss (weight recovery vs vehicle treated mice), soleus (SOL) (obestatin 500 nmol/Kg/72 h): 33.0±7.3%
reduction of skeletal muscle weight loss (weight recovery vs vehicle treated mice), tibialis anterior (TA) (obestatin 500 nmol/Kg/72 h): 30.8±6.1%
food intake (obestatin treatment): maintaining food intake
